{
  "source": "patent US20240398822A1",
  "about": "“METHODS AND COMPOSITIONS FOR TREATING AND MANAGING ALZHEIMER'S DISEASE” (Pharmatrophix, Inc., priority 2021, published 2024)",
  "key": {"[1]": {"test_system": "patients with mild to moderate Alzheimer's disease", "assay": "Phase IIa cognitive testing (ADAS-cog, MMSE)", "format": "in vivo, human", "protocol": "Exploratory outcome evaluations involved the assessment of cognitive and clinical function (Table 1). […] Items from the Neurological Testing Battery (NTB), together with the ADAS-Cog 13, Spatial Navigation Test (AMUNET) were performed at Baseline, Week 12 and Week 26 (Visits 2, 4 and 5). While the MMSE was used primarily as a screening and baseline disease staging tool, its repeated administration at Week 26 provided an additional exploratory cognitive outcome measure. The Geriatric Depression Scale (GDS) was assessed at each Visit (Screening, Baseline, Week 4, 12, 26: Visits 1-5) and the Clinical Global Impression test (CGI) with Severity was assessed at Screening (Visit 1) and then the Improvement was subsequently assessed at Weeks 12 and 26 (Visits 4 and 5). For each test, whether categorical or numeric, all raw scores were considered interval in nature. The change from Screening (Week −8) or Baseline (Week 0) was therefore be derived for each patient. Actual values at each Visit and Changes from Screening/Baseline were summarized.\nAlzheimer's Disease Assessment Scale—13 items (total score=85) is used as a parameter for exploratory outcome analysis. ADAS-cog is a psychometric instrument designed to evaluate the severity of cognitive and non-cognitive behavioral dysfunctions characteristic of people with AD. The cognitive portion assesses memory, language and praxis functions. Most items are rated on a scale of 0 to 5, where 0 indicates no impairment and 1 to 5 indicates very mild (1), mild (2), moderate (3), moderately severe (4) or severe impairment (5) respectively. Other items are rated on the presence or absence of a characteristic number of errors or severity of errors. The total scores from the ADAS-cog sub-scales range from 0 (no impairment) to 85 (errors in all sub-tests).\nA positive (i.e. increasing) change of the score indicates cognitive worsening. In a meta-analysis model of 52 Alzheimer's Disease trials involving 19,972 mild-moderate disease subjects, a spontaneous decline in performance corresponding to an increase in ADAS-cog score of 5.5 points over one year, pointing to an expected average increase in score of 2.75 points over a 6-month period.\nADAS-Cog was assessed at Visits 2, 4 and 5, as well as at the early discontinuation Visit, if applicable.\nWhile the MMSE was used primarily as a screening and baseline disease-staging tool, its administration at Week 26 provided an additional exploratory cognitive outcome measure.\nMini Mental Status Exam (MMSE). The MMSE can be used by a physician to evaluate a patient's condition over the course of administration. A baseline value prior to administration of a salt of Formula (II) can serve as a basis for baseline disease stage and also for the assessment of the effect of treatment on slowing loss of cognitive function. The expected decline in MMSE over a six month period generally ranges 1-3 points out of the total of 30 points possible in the MMSE test."}, "[2]": {"test_system": "p-tau", "assay": "Phase IIa CSF p-tau", "format": "in vivo, human", "conditions": "combined drug group", "description": "CSF samples were obtained at screening Visit and final Visit via lumbar puncture to determine levels of tau, p-tau, Aβ40, Aβ42 and AChE activity as an initial set of CSF biomarkers. Aliquots of CSF were made available for emerging CSF biomarker methods such as measurement of additional biomarkers including neurofilaments light chain, neurogranin, SNAP-25, synaptotagmin, YKL-40, TREM2, tau oligomers and for measurement of drug level in selected patients based on the time period between last dose of drug and CSF sampling (FIG. 25 and FIG. 58).\nBaseline CSF samples are obtained prior to administration via lumbar puncture. These samples are used to determine levels of tau, p-tau, Aβ40, Aβ42, AChE, neurofilament light chain, SNAP-25, synaptotagmin-1, neurogranin, sTREM, and YKL-40. Aliquots of CSF are also made available for emerging CSF biomarker methods such as measurement of tau oligomers and for measurement of drug level in selected patients based on time period between last dose of the salt of Formula (II) and CSF sampling. […] Many of these biomarkers can also be measured in blood or plasma. The change in values over the time period from pre-treatment to post-treatment are of particular importance. […]"}},
  "data": [
    {"smiles": "CC[C@H](C)[C@H](N)C(=O)NCCN1CCOCC1", "note": "[LM11A-31-BHS, Tris[(2S,3S)-2-amino-3-methyl-N-(2-morpholinoethyl)pentanamide] tetra(monohydrogensulfate), monosulfate]", "values": [
      {"measurement": "ADAS-cog-11, drug dose analysis", "setting": "[1]; 200 mg bid and 400 mg bid versus placebo", "value": "trend for decreased worsening of cognitive scores at both doses"},
      {"measurement": "ADAS-cog-13, drug dose analysis", "setting": "[1]; 200 and 400 mg groups versus placebo", "value": "nominal decrease in the increase in score"},
      {"measurement": "slowing trend in clinical outcome measures", "setting": "[1]; at 6 months, phase 2a study", "value": "30-45%"},
      {"measurement": "worsening of ADAS-13 and -11 scores, drug versus placebo", "setting": "[1]; combined drug group, 26 weeks, does not reach statistical significance", "value": "trend in slowing the worsening"},
      {"measurement": "directionality of slowing progression of worsening in ADAS-cog and MMSE", "setting": "[1]; drug versus placebo", "value": "favorable effect of drug treatment"},
      {"measurement": "trends for slower progression of ADAS-cog and MMSE scores, dose comparison", "setting": "[1]; effects at neither dose reached statistical significance", "value": "greater at the 400 compared to 200 mg doses"},
      {"measurement": "CSF p-tau, drug versus placebo", "setting": "[2]", "value": "trend for the drug to inhibit the trend to rise in p-tau"}
    ]}
  ]
}
